Reference: ChEMBL document CHEMBL1201862, “PubChem BioAssay data set” (2004)
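Protocol summary: plate cells (96-well), add compound at 5 concentrations, incubate 48 h, interpolate endpoints linearly. GI50: concentration for 50% inhibition of growth.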 Active and inactive are the calls of the source. Cut-off read from the data, not from the text of the source: active = GI50 up to about 1.1 µM and inactive = higher.

Tests used:
Assay in all cases: NCI anticancer screen, dose series, 48 h
A498 = tested on: A498
A549 = tested on: A549
ACHN = tested on: ACHN
BT-549 = tested on: BT-549
CAKI-1 = tested on: CAKI-1
CCRF-CEM = tested on: CCRF-CEM
COLO 205 = tested on: COLO 205
DU-145 = tested on: DU-145
EKVX = tested on: EKVX
HCC 2998 = tested on: HCC 2998
HCT-116 = tested on: HCT-116
HCT-15 = tested on: HCT-15
HL-60 = tested on: HL-60
HOP-62 = tested on: HOP-62
HOP-92 = tested on: HOP-92
HT-29 = tested on: HT-29
Hs-578T = tested on: Hs-578T
IGROV-1 = tested on: IGROV-1
K562 = tested on: K562
KM12 = tested on: KM12
LOX IMVI = tested on: LOX IMVI
M14 = tested on: M14
MCF7 = tested on: MCF7
MDA-MB-231 = tested on: MDA-MB-231
MDA-MB-435 = tested on: MDA-MB-435
MDA-N = tested on: MDA-N
MOLT-4 = tested on: MOLT-4
Malme-3M = tested on: Malme-3M
NCI-H226 = tested on: NCI-H226
NCI-H23 = tested on: NCI-H23
NCI-H460 = tested on: NCI-H460
NCI-H522 = tested on: NCI-H522
OVCAR-3 = tested on: OVCAR-3
OVCAR-4 = tested on: OVCAR-4
OVCAR-5 = tested on: OVCAR-5
OVCAR-8 = tested on: OVCAR-8
PC-3 = tested on: PC-3
RPMI-8226 = tested on: RPMI-8226
SF-268 = tested on: SF-268
SF-295 = tested on: SF-295
SF-539 = tested on: SF-539
SK-MEL-28 = tested on: SK-MEL-28
SK-MEL-2 = tested on: SK-MEL-2
SK-MEL-5 = tested on: SK-MEL-5
SK-OV-3 = tested on: SK-OV-3
SN12C = tested on: SN12C
SNB-19 = tested on: SNB-19
SNB-75 = tested on: SNB-75
SR = tested on: SR
SW-620 = tested on: SW-620
T47D = tested on: T47D
TK-10 = tested on: TK-10
U-251 = tested on: U-251
UACC-257 = tested on: UACC-257
UACC-62 = tested on: UACC-62
UO-31 = tested on: UO-31
786-0 = tested on: 786-0
NCI/ADR-RES = tested on: NCI/ADR-RES
RXF 393 = tested on: RXF 393

In the case of `O=C(Nc1ccc([N+](=O)[O-])cc1)Nn1cnnc1`, the GI50 (A498) was 34.1 µM (inactive), the GI50 (A549) was 67.3 µM (inactive) and the GI50 (ACHN) was > 100 µM (inactive). The GI50 (BT-549) was 20.8 µM (inactive), the GI50 (CAKI-1) was > 100 µM (inactive) and the GI50 (CCRF-CEM) was > 100 µM (inactive). The GI50 (COLO 205) was > 100 µM (inactive), the GI50 (DU-145) was 64 µM (inactive) and the GI50 (EKVX) was > 100 µM (inactive). For the same compound, the GI50 (HCC 2998) was 55.1 µM (inactive), the GI50 (HCT-116) was 74.5 µM (inactive) and the GI50 (HCT-15) was 45.6 µM. For the same compound, the GI50 (HL-60) was > 100 µM (inactive), the GI50 (HOP-62) was 66.2 µM (inactive) and the GI50 (HOP-92) was > 100 µM (inactive). For the same compound, the GI50 (HT-29) was 26.2 µM (inactive), the GI50 (Hs-578T) was 26.1 µM (inactive) and the GI50 (IGROV-1) was 80 µM (inactive). The GI50 (K562) was > 100 µM (inactive), the GI50 (KM12) was 26.1 µM (inactive) and the GI50 (LOX IMVI) was 96.8 µM (inactive). The GI50 (M14) was > 100 µM (inactive), the GI50 (MCF7) was 73.6 µM (inactive) and the GI50 (MDA-MB-231) was > 10 µM (inactive). The GI50 (MDA-MB-435) was 44.9 µM (inactive), the GI50 (MDA-N) was 34 µM (inactive) and the GI50 (MOLT-4) was > 100 µM (inactive). The GI50 (Malme-3M) was 15.9 µM (inactive), the GI50 (NCI-H226) was < 0.01 µM (active) and the GI50 (NCI-H23) was 13 µM (inactive). For the same compound, the GI50 (NCI-H460) was 37.6 µM (inactive), the GI50 (NCI-H522) was 49.8 µM (inactive) and the GI50 (OVCAR-3) was 12.2 µM (inactive). For the same compound, the GI50 (OVCAR-4) was 14.3 µM (inactive), the GI50 (OVCAR-5) was > 100 µM (inactive) and the GI50 (OVCAR-8) was 27.3 µM (inactive). The GI50 (PC-3) was 42.1 µM (inactive), the GI50 (RPMI-8226) was 49.7 µM (inactive) and the GI50 (SF-268) was 42 µM (inactive). The GI50 (SF-295) was 29 µM (inactive), the GI50 (SF-539) was 25.7 µM (inactive) and the GI50 (SK-MEL-28) was > 100 µM (inactive). For the same compound, the GI50 (SK-MEL-2) was > 100 µM (inactive), the GI50 (SK-MEL-5) was > 100 µM (inactive) and the GI50 (SK-OV-3) was > 100 µM (inactive). For the same compound, the GI50 (SN12C) was > 10 µM (inactive), the GI50 (SNB-19) was 57 µM (inactive) and the GI50 (SNB-75) was > 100 µM (inactive). The GI50 (SR) was 31.6 µM (inactive), the GI50 (SW-620) was 89.7 µM (inactive) and the GI50 (T47D) was 24 µM (inactive). For the same compound, the GI50 (TK-10) was 42.5 µM (inactive), the GI50 (U-251) was 27.5 µM (inactive) and the GI50 (UACC-257) was 94 µM (inactive). For the same compound, the GI50 (UACC-62) was 46.3 µM (inactive) and the GI50 (UO-31) was 53.1 µM (inactive).
With `O=C(Nc1ccc(Cl)cc1Cl)c1cc2nc3ccccc3c(=O)n2c2ccccc12` the GI50 (786-0) was > 10 µM (inactive), the GI50 (A498) was > 10 µM (inactive) and the GI50 (A549) was > 10 µM (inactive). The GI50 (BT-549) was > 10 µM (inactive), the GI50 (CAKI-1) was > 10 µM (inactive) and the GI50 (CCRF-CEM) was > 10 µM (inactive). The GI50 (DU-145) was > 10 µM (inactive), the GI50 (EKVX) was > 10 µM (inactive) and the GI50 (HCC 2998) was > 10 µM (inactive). The GI50 (HCT-116) was > 10 µM (inactive), the GI50 (HCT-15) was greater than 10 µM and the GI50 (HL-60) was > 10 µM (inactive). The GI50 (HOP-62) was > 10 µM (inactive), the GI50 (HOP-92) was > 10 µM (inactive) and the GI50 (HT-29) was > 10 µM (inactive). The GI50 (Hs-578T) was > 10 µM (inactive), the GI50 (IGROV-1) was > 10 µM (inactive) and the GI50 (K562) was > 10 µM (inactive). For the same compound, the GI50 (KM12) was > 10 µM (inactive), the GI50 (LOX IMVI) was > 10 µM (inactive) and the GI50 (M14) was > 10 µM (inactive). The GI50 (MCF7) was > 10 µM (inactive), the GI50 (MDA-MB-231) was > 10 µM (inactive) and the GI50 (MDA-MB-435) was > 10 µM (inactive). For the same compound, the GI50 (MDA-N) was > 10 µM (inactive), the GI50 (Malme-3M) was > 10 µM (inactive) and the GI50 (NCI-H23) was > 10 µM (inactive). For the same compound, the GI50 (NCI-H460) was > 10 µM (inactive), the GI50 (NCI-H522) was > 10 µM (inactive) and the GI50 (NCI/ADR-RES) was > 10 µM (inactive). The GI50 (OVCAR-3) was > 10 µM (inactive), the GI50 (OVCAR-5) was > 10 µM (inactive) and the GI50 (OVCAR-8) was > 10 µM (inactive). For the same compound, the GI50 (PC-3) was > 10 µM (inactive), the GI50 (RXF 393) was > 10 µM (inactive) and the GI50 (SF-268) was > 10 µM (inactive). For the same compound, the GI50 (SF-295) was > 10 µM (inactive), the GI50 (SF-539) was > 10 µM (inactive) and the GI50 (SK-MEL-28) was > 10 µM (inactive). For the same compound, the GI50 (SK-MEL-2) was > 10 µM (inactive), the GI50 (SK-MEL-5) was > 10 µM (inactive) and the GI50 (SK-OV-3) was > 10 µM (inactive). For the same compound, the GI50 (SNB-19) was > 10 µM (inactive), the GI50 (SW-620) was > 10 µM (inactive) and the GI50 (T47D) was > 10 µM (inactive). The GI50 (TK-10) was > 10 µM (inactive), the GI50 (U-251) was > 10 µM (inactive) and the GI50 (UACC-257) was > 10 µM (inactive). For the same compound, the GI50 (UACC-62) was > 10 µM (inactive) and the GI50 (UO-31) was > 10 µM (inactive).
